# Experimental data: US10689344B2, “Biphenylamide derivative Hsp90 inhibitors” (University of Kansas, priority 2013, dated 2020)
# How the values were obtained:
# [1] = tested on: SKBr3 (estrogen receptor negative, HER2 over-expressing breast cancer cells); assay: Anti-proliferation assay (MTS/PMS, 72 h), SKBr3; format: cell-based; conditions: Homo sapiens
# Experimental: (§1) Cells were maintained in a 1:1 mixture of Advanced DMEM/F12 (Gibco) supplemented with non-essential amino acids, L-glutamine (2 mM), streptomycin (500 μg/mL), penicillin (100 units/mL), and 10% FBS. Cells were grown to confluence in a humidified atmosphere (37° C., 5% CO2), seeded (2000/well, 100 μL) in 96-well plates, and allowed to attach overnight. Compound at varying concentrations in DMSO (1% DMSO final concentration) was added, and cells were returned to the incubator for 72 h. At 72 h, the number of viable cells was determined using an MTS/PMS cell proliferation kit (Promega) per the manufacturer's instructions. Cells incubated in 1% DMSO were used at 100% proliferation, and values were adjusted accordingly. IC50 values were calculated from separate experiments performed in triplicate using GraphPad Prism.
# (§2) Anti-proliferative studies with the compounds described herein were performed against the SKBr3 (estrogen receptor negative, HER2 over-expressing breast cancer cells) and MCF-7 (estrogen receptor positive breast cancer cells) breast cancer cell lines. […] In some embodiments, in contrast to the novobiocin derivatives, which usually manifest better anti-proliferative activities against the SKBr3 cell line, the biphenyl derivatives described herein were more efficacious against the MCF-7 cell line. In general, all substitutions on the phenyl ring were determined to be beneficial, consistent with the existence of a hydrophobic pocket in this region of the Hsp90 C-terminal binding site.
# [2] = tested on: MCF-7 (estrogen receptor positive breast cancer cells); assay: Anti-proliferation assay (MTS/PMS, 72 h), MCF-7; format: cell-based; conditions: Homo sapiens
# Experimental: as §1, §2
# [3] = SK-BR-3, Table 3, substituted para-para biphenyl core
# [4] = MCF7, Table 3, substituted para-para biphenyl core
# [5] = SK-BR-3, Table 11, heteroatom linked biphenyl core
# [6] = MCF7, Table 11, heteroatom linked biphenyl core
# [7] = SK-BR-3, Table 1, ortho, meta and para biphenyl cores
# [8] = MCF7, Table 1, ortho, meta and para biphenyl cores
# [9] = SK-BR-3, Table 8, para-para biphenyl core with substituted biphenylamide group
# [10] = MCF7, Table 8, para-para biphenyl core with substituted biphenylamide group
# [11] = SK-BR-3, Table 2, para-meta biphenyl core with substituted benzylamide
# [12] = MCF7, Table 2, para-meta biphenyl core with substituted benzylamide
# [13] = SK-BR-3, Table 6, para-para biphenyl core with substituted benzylamide
# [14] = MCF7, Table 6, para-para biphenyl core with substituted benzylamide
compound,measurement,setting,value
"COc1cccc(-c2cc(C(=O)Nc3ccc(-c4ccc(OC5CCN(C)CC5)c(C#N)c4)cc3)ccc2OC)c1 [Compound 29m, N-(3′-cyano-4′-((1-methylpiperidin-4-yl)oxy)-[1,1′-biphenyl]-4-yl)-3′,6-dimethoxy-[1,1′-biphenyl]-3-carboxamide]",IC50,[1]; [3],2.77 ± 1.16 µM
same,IC50,[2]; [4],3.7 ± 0.61 µM
"COc1cccc(-c2cc(C(=O)Nc3ccc(-c4ccc(OC5CCN(C)CC5)c(N)c4)cc3)ccc2OC)c1 [Compound 38a, N-(3′-amino-4′-((1-methylpiperidin-4-yl)oxy)-[1,1′-biphenyl]-4-yl)-3′,6-dimethoxy-[1,1′-biphenyl]-3-carboxamide]",IC50,[1]; [3],2.23 ± 0.49 µM
same,IC50,[2]; [4],5.95 ± 1.22 µM
CN1CCC(Oc2ccc(Nc3ccc(NC(=O)c4ccc(C(C)(C)C)cc4)cc3)cc2)CC1,IC50,[1]; [5],2.17 ± 0.03 µM
same,IC50,[2]; [6],3.37 ± 1.63 µM
"CN1CCC(Oc2cccc(-c3cccc(NC(=O)C45CC6CC(CC(C6)C4)C5)c3)c2)CC1 [Compound 61b, N-(3′-((1-methylpiperidin-4-yl)oxy)-[1,1′-biphenyl]-3-yl)adamantane-1-carboxamide]",IC50,[1]; [7],2.6 ± 0.71 µM
same,IC50,[2]; [8],2.07 ± 0.09 µM
COc1cccc(-c2cc(C(=O)Nc3ccc(-c4ccc(OC5CCN(C)CC5)c(CCC(C)C)c4)cc3)ccc2OC)c1,IC50,"[1]; SK-BR-3, Table 10, longer alkyl chain substituted biphenyl core",1.18 ± 0.04 µM
same,IC50,"[2]; MCF7, Table 10, longer alkyl chain substituted biphenyl core",1.43 ± 0.22 µM
"COc1ccc(C(=O)Nc2ccc(-c3ccc(OC4CCN(C)CC4)cc3)cc2)cc1-c1cccc(NC(C)=O)c1 [Compound 50d, 3′-acetamido-6-methoxy-N-(4′-((1-methylpiperidin-4-yl)oxy)-[1,1′-biphenyl]-4-yl)-[1,1′-biphenyl]-3-carboxamide]",IC50,[1]; [9],3.37 ± 0.74 µM
same,IC50,[2]; [10],1.43 ± 0.28 µM
"CN1CCC(Oc2ccc(-c3cccc(NC(=O)c4cccc5ccccc45)c3)cc2)CC1 [Compound 6p, N-(4′-((1-methylpiperidin-4-yl)oxy)-[1,1′-biphenyl]-3-yl)-1-naphthamide]",IC50,[1]; [11],1.64 ± 0.13 µM
same,IC50,[2]; [12],1.1 ± 0.17 µM
"CN1CCC(Oc2ccc(-c3ccc(NC(=O)c4ccc(Cl)c(Cl)c4)cc3)cc2)CC1 [Compound 41n, 3,4-dichloro-N-(4′-((1-methylpiperidin-4-yl)oxy)-[1,1′-biphenyl]-4-yl)benzamide]",IC50,[1]; [13],1.2 ± 0.08 µM
same,IC50,[2]; [14],1.6 ± 0.16 µM
"COc1cccc(-c2cc(C(=O)Nc3ccc(-c4ccc(OC5CCN(C)CC5)cc4)c(OC)c3)ccc2OC)c1 [Compound 29g, 3′,6-dimethoxy-N-(2-methoxy-4′-((1-methylpiperidin-4-yl)oxy)-[1,1′-biphenyl]-4-yl)-[1,1′-biphenyl]-3-carboxamide]",IC50,[1]; [3],0.9 ± 0.08 µM
same,IC50,[2]; [4],1.5 ± 0.08 µM
"Cc1ccc(C(=O)Nc2ccc(-c3ccc(OC4CCN(C)CC4)cc3)cc2)cc1 [Compound 41e, 4-methyl-N-(4′-((1-methylpiperidin-4-yl)oxy)-[1,1′-biphenyl]-4-yl)benzamide]",IC50,[1]; [13],0.98 ± 0.19 µM
same,IC50,[2]; [14],1.27 ± 0.13 µM
CN1CCC(Oc2ccc(Nc3ccc(NC(=O)c4ccc(Cl)cc4)cc3)cc2)CC1,IC50,[1]; [5],6.44 ± 2.61 µM
same,IC50,[2]; [6],7.1 µM
"CN1CCC(Oc2ccc(-c3ccc(NC(=O)c4cc5ccccc5[nH]4)cc3)cc2)CC1 [Compound 47a, N-(4′-((1-methylpiperidin-4-yl)oxy)-[1,1′-biphenyl]-4-yl)-1H-indole-2-carboxamide]",IC50,[1]; [13],0.64 ± 0.08 µM
same,IC50,[2]; [14],0.58 ± 0.02 µM
COc1cccc(-c2cc(NC(=O)c3ccc(-c4ccc(OC5CCN(C)CC5)cc4)cc3)ccc2OC)c1 [Compound 60],IC50,"[1]; SK-BR-3, Table 5, modified linkers in para-para biphenyl core",1.64 ± 0.79 µM
same,IC50,"[2]; MCF7, Table 5, modified linkers in para-para biphenyl core",1.22 ± 0.13 µM
"Cc1cc(C(=O)Nc2ccc(-c3ccc(OC4CCN(C)CC4)cc3)cc2)ccc1Cl [Compound 41j, 4-chloro-3-methyl-N-(4′-((1-methylpiperidin-4-yl)oxy)-[1,1′-biphenyl]-4-yl)benzamide]",IC50,[1]; [13],1.11 ± 0.42 µM
same,IC50,[2]; [14],1.03 ± 0.16 µM
"COc1cccc(-c2cc(C(=O)Nc3ccc(-c4ccc(OC5CCN(C)CC5)cc4OC)cc3)ccc2OC)c1 [Compound 29f, 3′,6-dimethoxy-N-(2′-methoxy-4′-((1-methylpiperidin-4-yl)-oxy)-[1,1′-biphenyl]-4-yl)-[1,1′-biphenyl]-3-carboxamide]",IC50,[1]; [3],1.41 ± 0.35 µM
same,IC50,[2]; [4],1.35 ± 0.16 µM
"COc1ccc(C(=O)Nc2cccc(-c3ccc(OC4CCN(C)CC4)cc3)c2)cc1 [Compound 6f, 4-methoxy-N-(4′-((1-methylpiperidin-4-yl)oxy)-[1,1′-biphenyl]-3-yl)benzamide]",IC50,[1]; [7],10.1 ± 0.93 µM
same,IC50,[1]; [11],10.1 ± 0.93 µM
same,IC50,[2]; [8],5.52 ± 0.01 µM
same,IC50,[2]; [12],5.52 ± 0.01 µM
"CN1CCC(Oc2ccc(-c3ccc(NC(=O)c4ccc(C(C)(C)C)cc4)cc3)cc2)CC1 [Compound 41g, 4-(tert-butyl)-N-(4′-((1-methylpiperidin-4-yl)oxy)-[1,1′-biphenyl]-4-yl)benzamide]",IC50,[1]; [7],1.26 ± 0.37 µM
same,IC50,[1]; [13],1.26 ± 0.37 µM
same,IC50,[2]; [8],1.08 ± 0.08 µM
same,IC50,[2]; [14],1.08 ± 0.08 µM
"COc1cccc(-c2cc(C(=O)Nc3cccc(-c4cccc(OC5CCN(C)CC5)c4)c3)ccc2OC)c1 [Compound 61d, 3′,6-dimethoxy-N-(3′-((1-methylpiperidin-4-yl)oxy)-[1,1′-biphenyl]-3-yl)-[1,1′-biphenyl]-3-carboxamide]",IC50,[1]; [7],1.62 ± 0.07 µM
same,IC50,[2]; [8],2 ± 0.07 µM
"COc1cccc(C(=O)Nc2cccc(-c3ccc(OC4CCN(C)CC4)cc3)c2)c1 [Compound 6g, 3-methoxy-N-(4′-((1-methylpiperidin-4-yl)oxy)-[1,1′-biphenyl]-3-yl)benzamide]",IC50,[1]; [11],8.36 ± 1.35 µM
same,IC50,[2]; [12],4.5 ± 0.46 µM
"COc1ccc(C(=O)Nc2ccc(-c3ccc(OC4CCN(C)CC4)cc3)cc2)cc1-c1ccccc1 [Compound 49a, 6-methoxy-N-(4′-((1-methylpiperidin-4-yl)oxy)-[1,1′-biphenyl]-4-yl)-[1,1′-biphenyl]-3-carboxamide]",IC50,[1]; [9],0.51 ± 0.11 µM
same,IC50,[2]; [10],0.84 ± 0.01 µM
"COc1cccc(-c2cc(C(=O)Nc3ccc(-c4ccc(OC5CCN(C)CC5)cc4)nc3)ccc2OC)c1 [Compound 19c, 3′,6-dimethoxy-N-(6-(4-((1-methylpiperidin-4-yl)oxy)phenyl)pyridin-3-yl)-[1,1′-biphenyl]-3-carboxamide]",IC50,"[1]; SK-BR-3, Table 4, para-para heteroatom substituted biphenyl core",1.21 ± 0.13 µM
same,IC50,"[2]; MCF7, Table 4, para-para heteroatom substituted biphenyl core",1.02 ± 0.01 µM
"COc1ccc(-c2cc(C(=O)Nc3ccc(-c4ccc(OC5CCN(C)CC5)cc4)cc3)ccc2OC)cc1 [Compound 49c, 4′,6-dimethoxy-N-(4′-((1-methylpiperidin-4-yl)oxy)-[1,1′-biphenyl]-4-yl)-[1,1′-biphenyl]-3-carboxamide]",IC50,[1]; [9],0.63 ± 0.04 µM
same,IC50,[2]; [10],0.79 ± 0.13 µM
"COc1cccc(-c2cc(C(=O)Nc3ccc(-c4ccc(OC5CCN(C)CC5)c(OC)c4)cc3)ccc2OC)c1 [Compound 29e, 3′,6-dimethoxy-N-(3′-methoxy-4′-((1-methylpiperidin-4-yl)oxy)-[1,1′-biphenyl]-4-yl)-[1,1′-biphenyl]-3-carboxamide]",IC50,[1]; [3],0.68 ± 0.13 µM
same,IC50,[2]; [4],1.32 ± 0.08 µM
"COc1cccc(-c2cc(C(=O)Nc3ccc(-c4ccc(OC5CCN(C)CC5)c([N+](=O)[O-])c4)cc3)ccc2OC)c1 [Compound 34a, 3′,6-dimethoxy-N-(4′-((1-methylpiperidin-4-yl)oxy)-3′-nitro-[1,1′-biphenyl]-4-yl)-[1,1′-biphenyl]-3-carboxamide]",IC50,[1]; [3],1.95 µM
same,IC50,[2]; [4],1.25 ± 0.28 µM
"CN1CCC(Oc2ccc(-c3ccc(NC(=O)c4cccc(-c5ccccc5)c4)cc3)cc2)CC1 [Compound 41r, N-(4′-((1-methylpiperidin-4-yl)oxy)-[1,1′-biphenyl]-4-yl)-[1,1′-biphenyl]-3-carboxamide]",IC50,[1]; [13],0.73 ± 0.07 µM
same,IC50,[1]; [9],0.73 ± 0.07 µM
same,IC50,[2]; [14],1.15 ± 0.18 µM
same,IC50,[2]; [10],1.15 ± 0.18 µM
"COc1cccc(-c2cc(C(=O)Nc3ccc(-c4ccc(OC5CCN(C)CC5)cc4)c(N)c3)ccc2OC)c1 [Compound 38c, N-(2-amino-4′-((1-methylpiperidin-4-yl)oxy)-[1,1′-biphenyl]-4-yl)-3′,6-dimethoxy-[1,1′-biphenyl]-3-carboxamide]",IC50,[1]; [3],3.9 ± 0.18 µM
same,IC50,[2]; [4],2.07 ± 0.23 µM
"CN1CCC(Oc2cccc(-c3cccc(NC(=O)c4ccc(C(C)(C)C)cc4)c3)c2)CC1 [Compound 61i, 4-(tert-butyl)-N-(3′-((1-methylpiperidin-4-yl)oxy)-[1,1′-biphenyl]-3-yl)benzamide]",IC50,[1]; [7],3.36 ± 0.2 µM
same,IC50,[2]; [8],1.93 ± 0.33 µM
"COc1cccc(-c2cc(C(=O)Nc3ccc(-c4ccc(OC5CCN(C)CC5)cc4)cc3N)ccc2OC)c1 [Compound 38d, N-(3-amino-4′-((1-methylpiperidin-4-yl)oxy)-[1,1′-biphenyl]-4-yl)-3′,6-dimethoxy-[1,1′-biphenyl]-3-carboxamide]",IC50,[1]; [3],3.21 ± 0.45 µM
same,IC50,[2]; [4],2.25 ± 0.49 µM
